Paper PMC3006138, “Fexinidazole – A New Oral Nitroimidazole Drug Candidate Entering Clinical Development for the Treatment of Sleeping Sickness” (PLoS Neglected Tropical Diseases, 2010)

Key:
[1] = 28-day repeated-dose oral toxicity; format: in vivo
Protocol: In the rat repeated-dose toxicokinetic study, fexinidazole was administered orally by gavage once a day for 28 consecutive days to ten or fifteen Crl:CD (SD)IGS BR rats/sex/group at doses of 50, 200, or 800 mg/kg/day. A control group received the vehicle alone (5% Tween 80/0.5% methocel). Ten animals/sex/group were sacrificed at the end of the treatment period on day 29 or 30 of study. The remaining 5 animals/sex/group in the control and high-dose groups were sacrificed on day 43 at the end of a 2-weeks observation period. Systemic exposure to fexinidazole and its sulfoxide and sulfone metabolites was evaluated in three additional animals/sex/group. Samples were taken at predose, and 30 min, 1, 2, 4, 8 and 24 h after dosing on days 1, 14, and 28, and in addition at 48 and 72 h after treatment on day 28.
Study Report for NervianoMS Study 0504-2007
Fexinidaxole, a 5-nitroimidazole derivative biologically active against Trypanosoma parasites (T.b. rhodesiense and T.b. brucei ), was administered orally by gavage once daily for 28 consecutive days to ten or fifteen Crl:CD (SD)IGS BR rats/sex/group at doses of 50, 200 and 800 mg/kg/day in a volume of 10 mL/kg.
A control group received the vehicle alone (5% Tween 80 in 0.5% Methyl cellulose 400 cP […]
Ten animals/sex/group were sacrificed at the end of the treatment period on Day 29 or 30 of study. The remaining 5 animals/sex in the control and high-dose groups were sacrificed on Day 43 at the end of a two-week observation period.
Mortality, behavior and general condition were observed daily. Body weight was recorded pretest, and on Days 1, 8, 14, 21, 28, 35 and 42. Food consumption was recorded from Days […]
pre-test, and on Days 28 and 42. Hematological and clinical chemistry examinations and urine analysis were performed on Days 29 and 43.
Post-mortem examinations performed at the end of the treatment period (Day 29 or 30) or the recovery period (Day 43) included necropsy, organ weights and histological […]
Systemic exposure information was obtained from three additional animals/sex/group on Days 1 and 14 at different time-points up to 24 hours after treatment and on Day 28 at different time-points up to 72 hours after treatment.
No meaningful clinical signs or changes in ophthalmoscopic examinations were seen. […]
animals at 200 and 800 mg/kg for the entire treatment period. When treatment was […]
weight gain in comparison with controls.
Nerviano Medical Sciences […]
Humidity 55% +/- 15; monitored
Air Approximately twenty air changes per hour; monitored
Lighting Approximate 12-hour light, 12-hour dark cycle. The lighting cycle could be interrupted for performance of protocol-defined activities.
Water Municipal main, water available ad libitum
Diet 4RF21 GLP pellets ad libitum, supplied by Mucedola
Actual conditions were continuously monitored and recorded, and records were retained.
Release of each lot of feed by the manufacturers was based on analysis of composite samples of each lot, which met specifications set by the manufacturers. Water was periodically analyzed for chemical and microbial impurities. No contaminants were identified in the food or water which were expected to interfere with the results or conclusions of this study.
All the above environmental conditions, as well as all the procedures adopted throughout the study for housing and handling the animals, were in strict compliance with EEC and Italian Guidelines for Laboratory Animal Welfare.
6.2.2. Allocation/Randomization
The animals were selected and distributed into experimental groups using random number tables (Fisher and Yates). The randomization was performed during the pretest period on February 1, 2008 for all animals.
One male animal (No. 2846) assigned to satellite study group for toxicokinetic purposes, found dead on Day 2 of study, was replaced with another one taken from the same arrival batch of animals, in order to maintain the number of three animals/sex/group for subsequent […]
blood samplings. […]

[2] = design: method as in study 0339-2007; conditions: 7-day repeated toxicity study, top dose 2000 mg/kg, ref study 0339-2007; cited from earlier work

## CSc1ccc(OCc2ncc([N+](=O)[O-])n2C)cc1 [Fexinidazole, 1-methyl-2-((p-(methylthio)phenoxy)methyl)-5-nitroimidazole]
[1]; all groups
  mortality: No compound-related mortality occurred
[1]; both sexes, Crl:CD (SD)IGS BR, rat, in vivo, po
  NOAEL at 28 days: 200 mg/kg/day
[1]; rat, in vivo
  decrease in hemoglobin: 8%
  decrease in neutrophils: about 46%
  decrease in triglycerides: 50%
  increase in globulins: +13%
  increase in total cholesterol: +51%
  liver enzymes: no increase in liver enzymes including AST and ALT
  liver histopathology: Minimal to slight hypertrophy of the centrilobular hepatocytes
[2]
  tolerability: well tolerated
